Results reported in US10807960B2, “Compounds, compositions, and methods for controlling biofilms” (KATHOLIEKE UNIVERSITEIT LEUVEN, priority 2015, dated 2020).
Like-named read-outs stand apart in the source and are kept apart here.

Legend:
[1] = test system: S. aureus ATCC6538; assay: static peg (Calgary Biofilm Device) anti-biofilm assay, crystal violet and OD600; conditions: 37° C.
[2] = test system: B. cepacia LMG1222T; assay: as above; conditions: for IC50: 25° C.
[3] = test system: S. aureus SH1000; assay: as above; conditions: for IC50: 37° C.
[4] = test system: E. coli TG1 + P. aeruginosa PA14; assay: mixed E. coli/P. aeruginosa biofilm assay, crystal violet; format: cell-based; conditions: for IC50: 37° C. (Table 3)
Protocol: Overnight cultures of E. coli TG1 and P. aeruginosa PA14, were diluted 1/100 in the same vial of TSB 1/20 to form a mixed culture suspension.

[5] = test system: C. albicans SC5314; assay: inhibition of C. albicans biofilms, cell titer blue (CTB) quantification; format: cell-based, Candida albicans; conditions: for IC50: biofilm formation, 37° C., read-out: BIC50
Protocol: The potential of the compounds to prevent C. albicans SC5314 biofilm formation was assessed using the cell titer blue (CTB) quantification method (26). For the CTB method, an overnight culture of C. albicans SC5314 was washed with PBS and a cell suspension of 10^6 cells/ml (OD600=0.1) was prepared in RPMI 1640 medium (pH 7.0). […] After 16 h of static incubation at 37° C., biofilms were washed and quantified with CTB as described previously.

[6] = test system: S. liquefaciens MG44; assay: static peg (Calgary Biofilm Device) anti-biofilm assay, crystal violet and OD600; format: cell-based, Serratia liquefaciens; conditions: 25° C.
[7] = test system: S. Typhimurium ATCC14028; assay: as above
[8] = test system: S. epidermidis; assay: as above; conditions: for IC50: 37° C.
[9] = test system: P. gingivalis ATCC33277; assay: as above
[10] = test system: P. aeruginosa PA14; assay: as above
[11] = test system: E. coli TG1; assay: as above; conditions: for IC50: 37° C.
[12] = test system: S. aureus ATCC6538 + S. epidermidis; assay: mixed S. aureus/S. epidermidis biofilm assay, crystal violet; format: cell-based; conditions: 37° C. (Table 3)
Protocol: Overnight cultures of S. aureus ATCC6538 and S. epidermidis were grown in LB medium and were diluted 1/200 in the same vial of TSB to form a mixed culture suspension.

[13] = test system: bone-marrow derived mesenchymal stem cells (MSC); assay: mammalian-cell viability assay, trypan blue staining; format: cell-based; conditions: 12.5 μM, 6 days exposure
Protocol: (§1) Cell viability of two human primary cell types, namely, osteoblasts (OB) and bone-marrow derived mesenchymal stem cells (MSC) was tested according to the ISO 10993-5 standard, as previously described. Briefly, cells were seeded in 96-well tissue culture test plates (TPP, Switzerland) at 5×10^3 cells/cm^2 in Advanced DMEM cell culture media supplemented with 10% serum, 1× GlutaMAX, 0.05 mg/mL Gentamycin, and were allowed to attach overnight. The next day, the cells were exposed to (i) cell culture medium and medium with the corresponding control (0.5% ethanol or DMSO) (negative controls), (ii) medium with 0.05% phenol (cytotoxic control), and (iii) medium with compounds (12.5 μM) and incubated for 2 h, 48 h and 6 days (8 repeats for each condition). At each time-point the numbers of viable and dead cells were determined directly by trypan blue staining, and indirectly by measuring the metabolic activity with MTT (3-(4,5-dimethylthiazol-2-yl)-2,5-diphenyltetrazolium bromide) staining.
(§2) The medium was removed from the wells, and 1/3 trypan blue in Dulbecco's modified Eagle's medium (DMEM) was added to the cells, incubated for 3 min, after which trypan blue was removed and DMEM medium was added to the wells. In each of four wells, two microscopy fields were counted for viable (transparent) and dead (blue) cells.

[14] = test system: osteoblasts (OB); assay: as above; format: cell-based; conditions: 12.5 μM, 6 days exposure
Protocol: as §1, §2

[15] = test system: C. albicans SC5314 + S. epidermidis; assay: mixed C. albicans/S. epidermidis biofilm assay, selective plating; format: cell-based, Candida albicans; Staphylococcus epidermidis; conditions: for activity at 100 µM: 100 μM (Table 5); for activity at 25 µM: 25 μM (Table 5)
Protocol: The concentrations 25 μM (0.0625% DMSO or ethanol) and 100 μM (0.25% DMSO or ethanol) were tested. After 24 h of incubation at 37° C., biofilms were washed with PBS and fresh medium with or without compounds was added. After further incubation for 48 h at 37° C., the biofilms were washed with PBS after which the cells were re-suspended in 100 μl of PBS by scraping off, sonication (1 min, 45 kHz, USC300-T; VWR, Radnor, Pa., USA) and vigorously pipetting up-and-down. Finally, the biofilm cells were diluted in PBS and plated on YPD agar plates containing 100 mg/L ampicillin and TSA plates containing 25 mg/L amphotericin B, to determine the number of fungal and bacterial CFUs after 2 days of incubation at 37° C., respectively. The percentage of C. albicans SC5314 and S. epidermidis cells was determined relative to the DMSO or ethanol control treatment.

[16] = test system: bone-marrow derived mesenchymal stem cells (MSC); assay: osteogenic differentiation, calcium and DNA assay; format: cell-based, human; conditions: 12.5 μM, calcium content normalized by DNA, versus solvent control
Protocol: (§3) The effect on osteogenic differentiation potential was assessed as previously described. Only the substances that allowed survival of the cells for more than 3 weeks, which is the time needed for mature osteogenic differentiation, were tested. Briefly, osteoblasts and bone-marrow derived mesenchymal stem cells were cultured in a positive solvent control (osteogenic medium with 0.5% DMSO or ethanol background), a negative control (medium without osteogenic supplements) and treated samples (osteogenic medium, 0.5% DMSO or ethanol background and 12.5 μM of test compound) with four repeats per condition. Mesenchymal stem cells and osteoblast cell cultures were harvested after 3 or 5 weeks, respectively, for the calcium and DNA assay.
(§4) Calcium deposition of osteoblasts and mesenchymal stem cells was measured with the Calcium CPC LiquiColor test (Stanbio Laboratory, Boerne, Tex.) as previously described. Briefly, cell cultures were extracted with 5% trichloroacetic acid (500 μl per sample), O-cresolphtalein complex was added, and the calcium content was determined spectrophotometrically at 550 nm. DNA content was determined as previously described. DNA values were used to normalize the calcium content. Four wells per condition were examined, and two samples from each well were taken for each assay.

[17] = test system: osteoblasts (OB); assay: osteogenic differentiation, calcium and DNA assay; format: cell-based, human; conditions: 12.5 μM, calcium content normalized by DNA, versus solvent control
Protocol: as §3, §4

[18] = read-out: BIC50, biofilm formation
[19] = mixed biofilm formation, read-out: BIC50
[20] = planktonic growth of mixed culture, read-out: IC50
[21] = biofilm formation, read-out: BIC50
[22] = planktonic growth, read-out: IC50
[23] = read-out: BIC50, biofilm formation, 25° C.
[24] = read-out: BIC50, biofilm formation, 37° C.
[25] = C. albicans in mixed biofilm with S. epidermidis, read-out: CFUs % survival C.a.
[26] = S. epidermidis in mixed biofilm with C. albicans, read-out: CFUs % survival Se.

SMILES | IC50 ([1]; planktonic growth) [µM] | IC50 [1, 18] [µM] | IC50 ([2]; planktonic growth) [µM] | IC50 [2, 18] [µM] | IC50 ([3]; planktonic growth) [µM] | IC50 [3, 18] [µM] | IC50 [4, 19] [µM] | IC50 [4, 20] [µM] | IC50 [5] [µM] | IC50 [6, 21] [µM] | IC50 [6, 22] [µM] | IC50 ([8]; planktonic growth) [µM] | IC50 [8, 18] [µM] | IC50 ([9]; planktonic growth, 37° C.) [µM] | IC50 ([10]; planktonic growth, 37° C.) [µM] | IC50 [10, 23] [µM] | IC50 [10, 24] [µM] | IC50 ([11]; planktonic growth) [µM] | IC50 [11, 18] [µM] | IC50 [12, 19] [µM] | other results
CCCCNc1ncc(-c2ccc(Br)cc2)[nH]1 [Compound 4] | 60.1 | ~12.3 | > 400 | 189 | 89.4 | 66.5 | 17.8 | > 400 | 66.7 | 4.4 | 118 | 54.4 | > 400 | 8.2 | > 400 | 9.8 | > 400 | 23 | 84.7 | 6.8 | IC50 [7, 23]: 7.1 µM; IC50 [9, 24]: 3.7 µM; IC50 [12, 20]: ~118 µM
Brc1ccc(-c2cnc(NCCn3cc(C4CC4)nn3)[nH]2)cc1 [Compound 6] | > 400 | 75.2 | > 400 | > 400 | > 400 | > 400 | 34.6 | > 400 | > 400 | 63.3 | > 400 | > 400 | > 400 | 19.5 | > 400 | 71.6 | > 400 | 183 | ~192 | 33.9 | anti-biofilm activity (in words) ([2]; monospecies biofilm): No activity; anti-biofilm activity (in words) ([3]; monospecies biofilm): No activity; anti-biofilm activity (in words) ([5]; monospecies biofilm, novel compounds: highest concentration tested 100 μM): No activity; IC50 ([7]; planktonic growth, 25° C.): 2.4 µM; IC50 [7, 18]: 2 µM; anti-biofilm activity (in words) ([8]; monospecies biofilm): No activity; IC50 [9, 18]: 18.1 µM; anti-biofilm activity (in words) ([10]; monospecies biofilm, 37° C.): No activity; IC50 ([10]; planktonic growth, 25° C.): > 400 µM; IC50 [12, 20]: ~392 µM
CCCCCCCCn1c(-c2ccccc2)cnc1NCC(C)C [Compound 8a, N-isobutyl-1-octyl-5-phenyl-1H-imidazol-2-amine] |  |  |  |  |  |  |  |  |  |  |  |  |  |  |  |  |  |  |  |  | proliferation (in words) [13]: slightly reduced; proliferation (in words) [14]: slightly reduced; activity at 100 µM [15, 25]: 1%; activity at 100 µM [15, 26]: 1%; inhibition of the mixed biofilm P. aeruginosa/E. coli (in words) [4]: strongly inhibited; anti-biofilm activity (in words) ([11]; biofilm at 37° C.): showed activity; anti-biofilm activity (in words) ([11]; biofilm cells at 25° C.): potent activity
CCCCCCCCn1c(-c2ccc(Cl)cc2)cnc1NCC(C)C [Compound 8b, 5-(4-chlorophenyl)-N-isobutyl-1-octyl-1H-imidazol-2-amine] |  |  |  |  |  |  |  |  |  |  |  |  |  |  |  |  |  |  |  |  | calcium deposition (in words) [16]: induced the calcium deposition; calcium deposition (in words) [17]: induced the calcium deposition; activity at 25 µM [15, 25]: 2%; activity at 25 µM ([15]; S. epidermidis in mixed biofilm with C. albicans, read-out: CFUs % survival S.c.): 6.1%; activity at 100 µM [15, 26]: 0.7%; anti-biofilm activity (in words) ([11]; biofilm cells at 25° C.): potent activity
